Measurements taken from patent US9090600B2, “Fungicidal 4-substituted-3-{phenyl[(heterocyclylmethoxy)imino]methyl}-1,2,4-oxadizol-5(4H)-one derivatives” (BAYER INTELLECTUAL PROPERTY GMBH, priority 2011, dated 2015).
Marks after values point to notes of the source that are not given here.

Conditions: pH 2.7

**Q.** For `CCCCCCCOC(=O)Nc1cccc(CO/N=C(/c2ccccc2)c2noc(=O)n2C)n1` [compound 419], which LogP is on record?
**A.** Its LogP is 5.25 [a].

**Q.** With `CCOC(=O)Nc1cccc(CO/N=C(/c2ccccc2)c2noc(=O)n2C)n1` [compound 421] as the compound, how does the LogP read?
**A.** Its LogP is 3.21 [a].

**Q.** With `Cn1c(/C(=N\OCc2cccc(NC(=O)OCCC[Si](C)(C)C)n2)c2ccccc2)noc1=O` [compound 422] as the compound, how does the LogP read?
**A.** Its LogP is 5.28 [a].

**Q.** For `Cn1c(/C(=N\OCc2cccc(NC(=O)OCCC(C)(C)C)n2)c2ccccc2)noc1=O` [compound 423], which LogP is on record?
**A.** Its LogP is 4.68 [a].

**Q.** For `Cn1c(/C(=N\OCc2cccc(NC(=O)OCC(C)(CO)CCl)n2)c2ccccc2)noc1=O` (centres unmarked) [compound 424], which LogP is on record?
**A.** Its LogP is 3.19 [a].

**Q.** With `Cc1ccc(OC(=O)Nc2cccc(CO/N=C(/c3ccccc3)c3noc(=O)n3C)n2)cc1` [compound 425] as the compound, how does the LogP read?
**A.** Its LogP is 4.03 [a].

**Q.** Which LogP does the source give for `CCCc1ccccc1OC(=O)Nc1cccc(CO/N=C(/c2ccccc2)c2noc(=O)n2C)n1` [compound 426] here?
**A.** Its LogP is 4.54 [a].

**Q.** For `CC(C)OC(=O)Nc1cccc(CO/N=C(/c2ccccc2)c2noc(=O)n2C)n1` [compound 427], which LogP is on record?
**A.** The LogP was 3.55 [a].

**Q.** For `Cn1c(/C(=N\OCc2cccc(NC(=O)OCc3c(Cl)cccc3Cl)n2)c2ccccc2)noc1=O` [compound 428], which LogP is on record?
**A.** The LogP was 4.56 [a].

**Q.** Which LogP does the source give for `COC(C)CCOC(=O)Nc1cccc(CO/N=C(/c2ccccc2)c2noc(=O)n2C)n1` (centres unmarked) [compound 429] here?
**A.** Its LogP is 3.37 [a].

**Q.** With `CCc1ccccc1OC(=O)Nc1cccc(CO/N=C(/c2ccccc2)c2noc(=O)n2C)n1` [compound 430] as the compound, how does the LogP read?
**A.** The LogP was 4.25 [a].

**Q.** Which LogP does the source give for `CCOCCCOC(=O)Nc1cccc(CO/N=C(/c2ccccc2)c2noc(=O)n2C)n1` [compound 431] here?
**A.** Its LogP is 3.44 [a].

**Q.** With `Cn1c(/C(=N\OCc2cccc(NC(=O)OCc3ccc(C#N)cc3)n2)c2ccccc2)noc1=O` [compound 432] as the compound, how does the LogP read?
**A.** The LogP was 3.61 [a].

**Q.** For `Cn1c(/C(=N\OCc2cccc(NC(=O)OCC3CCCCO3)n2)c2ccccc2)noc1=O` (centres unmarked) [compound 433], which LogP is on record?
**A.** The LogP was 3.5 [a].

**Q.** For `Cn1c(/C(=N\OCc2cccc(NC(=O)OCc3cccnc3)n2)c2ccccc2)noc1=O` [compound 434], which LogP is on record?
**A.** Its LogP is 2.17 [a].

**Q.** With `CCc1cccc(OC(=O)Nc2cccc(CO/N=C(/c3ccccc3)c3noc(=O)n3C)n2)c1` [compound 435] as the compound, how does the LogP read?
**A.** Its LogP is 4.34 [a].

**Q.** For `C#CCCCOC(=O)Nc1cccc(CO/N=C(/c2ccccc2)c2noc(=O)n2C)n1` [compound 436], which LogP is on record?
**A.** Its LogP is 3.51 [a].

**Q.** With `Cn1c(/C(=N\OCc2cccc(NC(=O)OCc3ccccn3)n2)c2ccccc2)noc1=O` [compound 437] as the compound, how does the LogP read?
**A.** Its LogP is 2.64 [a].

**Q.** With `Cn1c(/C(=N\OCc2cccc(NC(=O)OCCC3CC3)n2)c2ccccc2)noc1=O` [compound 438] as the compound, how does the LogP read?
**A.** Its LogP is 4.01 [a].

**Q.** With `CCOCCOCCOC(=O)Nc1cccc(CO/N=C(/c2ccccc2)c2noc(=O)n2C)n1` [compound 439] as the compound, how does the LogP read?
**A.** The LogP was 3.13 [a].

**Q.** With `Cn1c(/C(=N\OCc2cccc(NC(=O)OC[Si](C)(C)C)n2)c2ccccc2)noc1=O` [compound 440] as the compound, how does the LogP read?
**A.** The LogP was 4.53 [a].

**Q.** With `COc1cccc(COC(=O)Nc2cccc(CO/N=C(/c3ccccc3)c3noc(=O)n3C)n2)c1` [compound 441] as the compound, how does the LogP read?
**A.** The LogP was 3.96 [a].

**Q.** For `Cn1c(/C(=N\OCc2cccc(NC(=O)OCC#C[Si](C)(C)C)n2)c2ccccc2)noc1=O` [compound 443], which LogP is on record?
**A.** The LogP was 4.63 [a].

**Q.** With `Cn1c(/C(=N\OCc2cccc(NC(=O)OC(C)(C)C(Cl)(Cl)Cl)n2)c2ccccc2)noc1=O` [compound 445] as the compound, how does the LogP read?
**A.** The LogP was 4.91 [a].

**Q.** With `CC(=O)CCCOC(=O)Nc1cccc(CO/N=C(/c2ccccc2)c2noc(=O)n2C)n1` [compound 446] as the compound, how does the LogP read?
**A.** The LogP was 2.96 [a].

**Q.** With `Cn1c(/C(=N\OCc2cccc(NC(=O)OCCOCCCl)n2)c2ccccc2)noc1=O` [compound 447] as the compound, how does the LogP read?
**A.** Its LogP is 3.29 [a].

**Q.** Which LogP does the source give for `CC(C)=CCCOC(=O)Nc1cccc(CO/N=C(/c2ccccc2)c2noc(=O)n2C)n1` [compound 448] here?
**A.** The LogP was 4.39 [a].

**Q.** Which LogP does the source give for `COc1ccc(COC(=O)Nc2cccc(CO/N=C(/c3ccccc3)c3noc(=O)n3C)n2)cc1` [compound 450] here?
**A.** The LogP was 3.92 [a].

**Q.** With `CC(COC(=O)Nc1cccc(CO/N=C(/c2ccccc2)c2noc(=O)n2C)n1)CC(C)(C)C` (centres unmarked) [compound 451] as the compound, how does the LogP read?
**A.** The LogP was 5.39 [a].
